Data taken from PubChem BioAssay (NCI).
Values joined by “and” are separate entries in the source; they are usually repeats but may differ in a detail not shown here. Equal values may be shown once.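 1) Cells in 96-well plates. 2) Compound, 48 h, 5 concentrations. 3) Linear interpolation between surrounding doses. 4) Unreached endpoint = highest concentration. GI50: concentration for 50% inhibition of growth. TGI: concentration producing complete growth inhibition.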

Legend:
Assay in all cases: NCI-60 cell line screen, 48 h
[1] = system: HCT-15 colon
[2] = system: CCRF-CEM leukemia
[3] = system: HCC-2998 colon
[4] = system: SF-539 CNS
[5] = system: SF-295 CNS
[6] = system: HS 578T breast
[7] = system: MCF7 breast
[8] = system: MALME-3M melanoma

Row | Structure (SMILES) | GI50 [1] | TGI [1] | GI50 [2] | TGI [2] | GI50 [3] | TGI [3] | GI50 [4] | TGI [4] | GI50 [5] | TGI [5] | GI50 [6] | TGI [6] | GI50 [7] | TGI [7] | GI50 [8] | TGI [8]
1 | COc1ccc(C2SC(C)C(=O)N2NC(=O)C(O)c2ccccc2)cc1OC (stereo unspecified) | > 100 µM | > 100 µM | > 100 µM | > 100 µM | > 100 µM | > 100 µM | > 100 µM | > 100 µM | > 100 µM | > 100 µM | > 100 µM | > 100 µM | > 100 µM | > 100 µM | – | –
2 | O=C(Nc1cccc(NC(=O)Nc2cc(C(F)(F)F)ccc2Cl)c1)Nc1cc(C(F)(F)F)ccc1Cl | 0.566 µM | > 100 µM | 3.21 µM | 71.7 µM | 6.72 µM | > 100 µM | 6.15 µM | 32 µM | 1.59 µM | 12.2 µM | 2.64 µM | 8.81 µM | 0.516 µM | 32.9 µM | 4.55 µM | 44.1 µM
3 | C[CH2][Sn]([CH2]C)([O]C(=O)C(OC(C)=O)c1ccccc1)[O]C(=O)C(OC(C)=O)c1ccccc1 (stereo unspecified) | 25.7 µM | 82.3 µM | 1.93 µM | 6.15 µM | – | – | 17.5 µM | 33 µM | > 100 µM | > 100 µM | 40 µM | > 100 µM | 14.6 µM | 27.8 µM | 18.4 µM | 33.5 µM
4 | COc1ccc(/C=C2\S/C(=N/Nc3nc(-c4ccccc4)cs3)NC2=O)cc1OC | – | 69 µM | – | 22.3 µM | – | 64.2 µM | – | 71.4 µM | – | 86.3 µM | – | 83.3 µM | – | > 100 µM | – | –
5 | C/C=C(/COC(C)=O)C(=O)OC1C=C(C=O)C(C)(C)C=C1C (stereo unspecified) | – | > 100 µM | – | > 100 µM | – | > 100 µM | – | > 100 µM | – | > 100 µM | – | > 100 µM | – | > 100 µM | – | > 100 µM
6 | O=C(NN1C(=O)CSC12CCCC2)c1[nH]c2ccc(Br)cc2c1-c1ccccc1 | 43.2 µM | > 100 µM | 40.1 µM | > 100 µM | 44.6 µM | > 100 µM | > 100 µM | > 100 µM | 24.2 µM | 69.7 µM | 96.8 µM | > 100 µM | 37.2 µM | > 100 µM | 38.3 µM | > 100 µM
7 | CC1(C)CC(C)(C)C1=NNC(N)=O | – | > 100 µM | – | > 100 µM | – | > 100 µM | – | > 100 µM | – | > 100 µM | – | > 100 µM | – | > 100 µM | – | > 100 µM
8 | C[C@]12CC[C@H]3[C@@H](CC[C@]4(O)C[C@@H](O)CC[C@]34/C=N/O)[C@@]1(O)CC[C@@H]2C1=COC(=O)C1 | – | 0.45 µM | – | > 100 µM | – | 0.687 µM | – | 0.221 µM | – | 0.386 µM | – | > 100 µM | – | – | – | 1.09 µM
9 | COc1cccc(-n2ncc3c(N/N=C/c4ccncc4)ncnc32)c1 | 3.57 µM | > 25 µM | > 13.4 µM | > 25 µM | > 25 µM | > 25 µM | 4.27 µM | > 25 µM | 1.35 µM | > 25 µM | 0.322 µM | > 6.41 µM | > 12.2 µM | > 25 µM | > 25 µM | > 25 µM
10 | C/C=C(\C)C(=O)O[C@H]1C=CC(=O)O[C@@H]1CC[C@H](O)[C@H](C)O | 28.6 µM | > 80.3 µM | 21.3 µM | 66.2 µM | 64.6 µM | > 100 µM | 30.9 µM | > 100 µM | > 100 µM | > 100 µM | 34.8 µM | 94.2 µM | 32.6 µM | > 100 µM | 29.3 µM | 70.6 µM
11 | O=C(NC[C@H](O)CO)c1ccncc1Nc1ccc(I)cc1F | 3.53 µM and 5.62 µM | > 100 µM | > 100 µM | > 100 µM | 0.00358 µM and 0.019 µM | > 8.4 µM and 9.22 µM | > 10 µM and 23.2 µM | > 100 µM | > 41 µM | > 100 µM | > 64.1 µM | > 100 µM | > 10 µM and 15.5 µM | > 100 µM | 0.00242 µM and < 0.01 µM | 0.0972 µM and < 0.0162 µM
12 | O=c1nc2oc3ccc4ccccc4c3cc-2s1 | > 45.7 µM | > 100 µM | 0.989 µM | > 100 µM | > 100 µM | > 100 µM | 1.58 µM | > 100 µM | 2.96 µM | > 92.7 µM | 0.528 µM | > 61.8 µM | 0.485 µM | > 100 µM | 0.743 µM | > 100 µM
13 | Cc1ccc(S(=O)(=O)Nc2cccc3[nH]c(C(F)(F)F)nc23)cc1 | 0.408 µM | > 100 µM | 1.16 µM | > 100 µM | 2.89 µM | 40.3 µM | 0.427 µM | 2.06 µM | 0.283 µM | 1.54 µM | 0.887 µM | 38.2 µM | 0.389 µM | > 54.5 µM | 1.95 µM | 37.3 µM
14 | C1CN(SSN2CCOCC2)CCO1 | 35.6 µM | > 100 µM | 43.9 µM | > 100 µM | > 100 µM | > 100 µM | 24.3 µM | 80.7 µM | 32.4 µM | > 100 µM | 30.3 µM | > 100 µM | 23.3 µM | 64.4 µM | 53.6 µM | > 100 µM
15 | O=C(Nc1ccc(Cl)c(Cl)c1)O/N=C\c1c(Cl)ccc([N+](=O)[O-])c1Cl | 1.2 µM | 3.48 µM | 1.88 µM | 5.1 µM | – | – | 2.64 µM | 8.36 µM | 2.8 µM | 8.14 µM | 3.35 µM | 38.7 µM | 0.404 µM | 2 µM | – | –
16 | CCCOC(=O)N1CCN(/[N+]([O-])=N/Oc2ccc([N+](=O)[O-])cc2[N+](=O)[O-])CC1 | 2.2 µM | 5.65 µM | – | – | – | – | 0.273 µM | 0.648 µM | 3.76 µM | 14.9 µM | 4.95 µM | 50.9 µM | 0.446 µM | 2.23 µM | – | –
17 | COc1cc(C(=O)NC2CCN(C)CC2)c(F)cc1Nc1ncc2c(n1)N(C1CCCC1)CC(F)(F)C(=O)N2C | < 0.0213 µM | 14 µM | < 0.01 µM | 3.58 µM | 0.0293 µM | 12.3 µM | < 0.0181 µM | 1.3 µM | < 0.0176 µM | – | < 0.0342 µM | 10.4 µM | < 0.01 µM | 11.9 µM | – | –
